Data taken from patent publication US20200209247A1, “METHODS FOR IDENTIFYING MYELOMA TUMOR-INITIATING CELLS AND TARGETED THERAPY” (UNIVERSITY OF IOWA RESEARCH FOUNDATION, priority 2017, published 2020).

System: RPMI-8226, RPMI-8226-R5 (a drug resistant cell line) cells
Type: cell-based, human
Conditions: treated in vitro for 72 h; RT-PCR
Description: Drug resistance is a critical characteristic of TICs^43. To examine whether CD24^+ cells show higher resistance to chemotherapeutic drugs, the soft agar clonogenic formation assay was employed to examine the response to multiple drugs. […] The ARP1 cells from the 1st passage were collected and re-plated in methylcellulose dishes. CD24^+ and CD24^− ARP1 MM cells in the 2nd passage were treated with bortezomib (2 and 10 nM) or carfilzomib (2.5 and 12.5 nM) or melphalan (2.5 and 12.5 μM) for 2 weeks. CD24^+ ARP1 (FIGS. 5A & 5B) or OCI-MY5 (FIGS. 5C & 5D) MM cells were more pronounced resistant (>2.5-fold) than CD24^− ARP1 or OCI-MY5 MM cells. To directly confirm whether CD24^+ population are enriched upon chemotherapy, we treated RPMI-8226, RPMI-8226-R5 (a drug resistant cell line) cells with bortezmib or melphalan in vitro for 72 h (data not shown).

| SMILES | expression of CD24 in survival cells compared to untreated MM cells |
| --- | --- |
| N[C@@H](Cc1ccc(N(CCCl)CCCl)cc1)C(=O)O [melphalan] | upregulated |
| CC(C)C[C@H](NC(=O)[C@H](Cc1ccccc1)NC(=O)c1cnccn1)B(O)O [bortezomib] | upregulated |
